Assay results as given in patent US12187728B2 (Raze Therapeutics, Inc., priority 2015, dated 2025).

These molecules were tested against T1, Human MTHFD2 (Homo sapiens, UniProt P13995) (assay: MTHFD2 Activity Assay (dehydrogenase activity, diaphorase/resazurin coupled fluorescence)). Settings: inhibitory activity (IC50 and/or binding constant); 0.2 nM MTHFD2, 11 concentrations.
T1 construct: residues 36-350 in Uniport ID P13995; His6 (N); made in house; host or cells: E. coli
T1 sequence (P13995 36-350): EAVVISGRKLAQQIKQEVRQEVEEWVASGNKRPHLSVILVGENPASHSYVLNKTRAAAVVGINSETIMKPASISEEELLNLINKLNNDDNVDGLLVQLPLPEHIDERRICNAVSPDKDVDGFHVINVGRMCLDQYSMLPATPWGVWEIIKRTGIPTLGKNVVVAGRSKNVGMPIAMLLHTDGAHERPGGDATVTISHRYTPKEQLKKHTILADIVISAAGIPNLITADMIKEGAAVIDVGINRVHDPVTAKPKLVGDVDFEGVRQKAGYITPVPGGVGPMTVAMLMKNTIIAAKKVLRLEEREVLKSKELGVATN
Format: biochemical
Procedure, shortened: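 Steps: compound + 0.2 nM enzyme, 15 min, pH 8.0 Hepes buffer; add 70 μM CH2-THF, 1 mM NAD+, 100 μM resazurin, diaphorase; 30 min; quench with EDTA; read fluorescence. Data normalized to DMSO (100%) and no-enzyme (0%) wells.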

IC50, 10 to 1000 nM:
Cn1c(N[C@H]2CCC[C@@H]2O)nc2c1c(=O)n(Cc1cc3c(Cl)cccc3[nH]1)c(=O)n2C [Example 403, 1-((4-chloro-1H-indol-2-yl)methyl)-8-((1S,2S)-2-hydroxycyclopentylamino)-3,7-dimethyl-1H-purine-2,6(3H,7H)-dione]
Cn1c(Nc2ccncc2)nc2c1c(=O)n(Cc1cc3c(C(F)(F)F)cccc3[nH]1)c(=O)n2C [Example 404, 3,7-dimethyl-8-(pyridin-4-ylamino)-1-((4-(trifluoromethyl)-1H-indol-2-yl)methyl)-1H-purine-2,6(3H,7H)-dione]
CN(C)C(=O)CCc1nccc(Nc2nc3c(c(=O)n(Cc4cc5c(Cl)cccc5[nH]4)c(=O)n3C)n2C)n1 [Example 405, 3-(4-(1-((4-chloro-1H-indol-2-yl)methyl)-3,7-dimethyl-2,6-dioxo-2,3,6,7-tetrahydro-1H-purin-8-ylamino)pyrimidin-2-yl)-N,N-dimethylpropanamide]
Cn1c(Nc2ccnc(CCC(=O)N3CCCCC3)n2)nc2c1c(=O)n(Cc1cc3c(Cl)cccc3[nH]1)c(=O)n2C [Example 406, 1-((4-chloro-1H-indol-2-yl)methyl)-3,7-dimethyl-8-(2-(3-oxo-3-(piperidin-1-yl)propyl)pyrimidin-4-ylamino)-1H-purine-2,6(3H,7H)-dione]
Cn1c(Nc2ccc(CO)nc2)nc2c1c(=O)n(Cc1cc3c(Cl)cccc3[nH]1)c(=O)n2C [Example 407, 1-((4-chloro-1H-indol-2-yl)methyl)-8-(6-(hydroxymethyl)pyridin-3-ylamino)-3,7-dimethyl-1H-purine-2,6(3H,7H)-dione]
COC(=O)c1ccc(Nc2nc3c(c(=O)n(Cc4cc5c(Cl)cccc5[nH]4)c(=O)n3C)n2C)cn1 [Example 408, Methyl 5-(1-((4-chloro-1H-indol-2-yl)methyl)-3,7-dimethyl-2,6-dioxo-2,3,6,7-tetrahydro-1H-purin-8-ylamino)picolinate]
Cn1c(Nc2ccc(C(N)=O)nc2)nc2c1c(=O)n(Cc1cc3c(Cl)cccc3[nH]1)c(=O)n2C [Example 409, 5-(1-((4-chloro-1H-indol-2-yl)methyl)-3,7-dimethyl-2,6-dioxo-2,3,6,7-tetrahydro-1H-purin-8-ylamino)picolinamide]
Cc1cccc2cc(Cn3c(=O)c4c(nc(Nc5ccncc5)n4C)n(C)c3=O)ccc12 [Example 410, 3,7-dimethyl-1-((5-methylnaphthalen-2-yl)methyl)-8-(pyridin-4-ylamino)-1H-purine-2,6(3H,7H)-dione]
Cn1c(C(N)c2ccccc2)nc2c1c(=O)n(Cc1cc3c(Cl)cccc3[nH]1)c(=O)n2C (stereo not shown) [Example 411, 8-(amino(phenyl)methyl)-1-((4-chloro-1H-indol-2-yl)methyl)-3,7-dimethyl-1H-purine-2,6(3H,7H)-dione]
Cn1c(Nc2ccnc(CCC(=O)N3CCC3)n2)nc2c1c(=O)n(Cc1cc3c(Cl)cccc3[nH]1)c(=O)n2C [Example 413, 8-(2-(3-(azetidin-1-yl)-3-oxopropyl)pyrimidin-4-ylamino)-1-((4-chloro-1H-indol-2-yl)methyl)-3,7-dimethyl-1H-purine-2,6(3H,7H)-dione]
CN(C(=O)CCc1nccc(Nc2nc3c(c(=O)n(Cc4cc5c(Cl)cccc5[nH]4)c(=O)n3C)n2C)n1)C1CC1 [Example 414, 3-(4-(1-((4-chloro-1H-indol-2-yl)methyl)-3,7-dimethyl-2,6-dioxo-2,3,6,7-tetrahydro-1H-purin-8-ylamino)pyrimidin-2-yl)-N-cyclopropyl-N-methylpropanamide]
CNC(=O)CCc1nccc(Nc2nc3c(c(=O)n(Cc4cc5c(Cl)cccc5[nH]4)c(=O)n3C)n2C)n1 [Example 415, 3-(4-(1-((4-chloro-1H-indol-2-yl)methyl)-3,7-dimethyl-2,6-dioxo-2,3,6,7-tetrahydro-1H-purin-8-ylamino)pyrimidin-2-yl)-N-methylpropanamide]
Cn1c(Nc2ccnc(CCC(=O)N3CCOCC3)n2)nc2c1c(=O)n(Cc1cc3c(Cl)cccc3[nH]1)c(=O)n2C [Example 416, 1-((4-chloro-1H-indol-2-yl)methyl)-3,7-dimethyl-8-((2-(3-morpholino-3-oxopropyl)pyrimidin-4-yl)amino)-3,7-dihydro-1H-purine-2,6-dione]
Cn1c(Nc2ccnc(CCC(=O)N3CCCC3)n2)nc2c1c(=O)n(Cc1cc3c(Cl)cccc3[nH]1)c(=O)n2C [Example 417, 1-((4-chloro-1H-indol-2-yl)methyl)-3,7-dimethyl-8-(2-(3-oxo-3-(pyrrolidin-1-yl)propyl)pyrimidin-4-ylamino)-1H-purine-2,6(3H,7H)-dione]
Cn1c(=O)n(Cc2cc3c(Cl)cccc3[nH]2)c(=O)c2c1nc(NC1CCCC(C(=O)O)C1)n2CCN (stereo not shown) [Example 418, 3-(7-(2-aminoethyl)-1-((4-chloro-1H-indol-2-yl)methyl)-3-methyl-2,6-dioxo-2,3,6,7-tetrahydro-1H-purin-8-ylamino)cyclohexanecarboxylic acid]
Cc1cccc2[nH]c(Cn3c(=O)c4c(nc(Nc5ccncc5)n4C)n(C)c3=O)c(C)c12 [Example 419, 1-((3,4-dimethyl-1H-indol-2-yl)methyl)-3,7-dimethyl-8-(pyridin-4-ylamino)-1H-purine-2,6(3H,7H)-dione]
Cn1c(Nc2ccc(C(N)=O)cc2)nc2c1c(=O)n(Cc1cc3c(Cl)cccc3[nH]1)c(=O)n2C [Example 420, 4-[[1-[(4-chloro-1H-indol-2-yl)methyl]-3,7-dimethyl-2,6-dioxo-purin-8-yl]amino]benzamide]
COc1nc2c(c(=O)n(Cc3cc4cccc(Cl)c4[nH]3)c(=O)n2C)n1C [Example 421, 1-[(7-chloro-1H-indol-2-yl)methyl]-8-methoxy-3,7-dimethyl-purine-2,6-dione]
Cn1c(NC(=O)C(F)(F)F)nc2c1c(=O)n(Cc1cc3c(Cl)cccc3[nH]1)c(=O)n2C [Example 422, N-[1-[(4-chloro-1H-indol-2-yl)methyl]-3,7-dimethyl-2,6-dioxo-purin-8-yl]-2,2,2-trifluoro-acetamide]
Cn1c(C2CCNC2)nc2c1c(=O)n(Cc1[nH]c3cccc(Cl)c3c1Cl)c(=O)n2C (stereo not shown) [Example 423, 1-((3,4-dichloro-1H-indol-2-yl)methyl)-3,7-dimethyl-8-(pyrrolidin-3-yl)-1H-purine-2,6(3H,7H)-dione]
Cn1c(C2CCCN2)nc2c1c(=O)n(Cc1cc3c(Cl)cccc3[nH]1)c(=O)n2C (stereo not shown) [Example 424, 1-[(4-chloro-1H-indol-2-yl)methyl]-3,7-dimethyl-8-pyrrolidin-2-yl-purine-2,6-dione]
Cn1c(C2CCNC2)nc2c1c(=O)n(Cc1cc3c(Cl)cccc3[nH]1)c(=O)n2C (stereo not shown) [Example 425, 1-[(4-chloro-1H-indol-2-yl)methyl]-3,7-dimethyl-8-pyrrolidin-3-yl-purine-2,6-dione]
CCN(CC)C(=O)CCc1nccc(Nc2nc3c(c(=O)n(Cc4cc5c(Cl)cccc5[nH]4)c(=O)n3C)n2C)n1 [Example 426, 3-(4-(1-((4-chloro-1H-indol-2-yl)methyl)-3,7-dimethyl-2,6-dioxo-2,3,6,7-tetrahydro-1H-purin-8-ylamino)pyrimidin-2-yl)-N,N-diethylpropanamide]
Cn1c(Nc2ccc(C#N)nc2)nc2c1c(=O)n(Cc1cc3c(Cl)cccc3[nH]1)c(=O)n2C [Example 427, 5-(1-((4-chloro-1H-indol-2-yl)methyl)-3,7-dimethyl-2,6-dioxo-2,3,6,7-tetrahydro-1H-purin-8-ylamino)picolinonitrile]
Cn1c(Nc2ccnc(CCC(=O)N3CCNCC3)n2)nc2c1c(=O)n(Cc1cc3c(Cl)cccc3[nH]1)c(=O)n2C [Example 428, 1-((4-chloro-1H-indol-2-yl)methyl)-3,7-dimethyl-8-(2-(3-oxo-3-(piperazin-1-yl)propyl)pyrimidin-4-ylamino)-1H-purine-2,6(3H,7H)-dione]
Cn1c(Nc2ccc(CN)nc2)nc2c1c(=O)n(Cc1cc3c(Cl)cccc3[nH]1)c(=O)n2C [Example 429, 8-(6-(aminomethyl)pyridin-3-ylamino)-1-((4-chloro-1H-indol-2-yl)methyl)-3,7-dimethyl-1H-purine-2,6(3H,7H)-dione]
Cn1c(C2CCCCN2)nc2c1c(=O)n(Cc1cc3c(Cl)cccc3[nH]1)c(=O)n2C (stereo not shown) [Example 430, 1-((4-chloro-1H-indol-2-yl)methyl)-3,7-dimethyl-8-(piperidin-2-yl)-3,7-dihydro-1H-purine-2,6-dione]
Cn1c(Nc2ccc(CC(N)=O)cc2)nc2c1c(=O)n(Cc1cc3c(Cl)cccc3[nH]1)c(=O)n2C [Example 431, 2-[4-[[1-[(4-chloro-1H-indol-2-yl)methyl]-3,7-dimethyl-2,6-dioxo-purin-8-yl]amino]phenyl]acetamide]
